In one test the test system is EAE mice. Nature of the test: MOG-induced experimental autoimmune encephalomyelitis (EAE) mouse model. The format is in vivo.
The subject of a further test is Huh7-NC12 cells. In words: Exosome release from liver cancer cells (luciferase exosome reporter, ExoHTP platform). Format: cell-based. The conditions noted are these: 48 h, luciferase activity of exosomes purified from supernatant.
Another test concerns BALB/c mice. Nature of the test: Circulating plasma exosomes in mice after oral dosing. The format is in vivo, mouse. The conditions noted are these: 100 mg/kg once a day for 14 days by gavage, vs vehicle. On the procedure:
In vivo experiments: 6- to 8-week-old BALB/c mice (18 to 20 g) were purchased from Beijing Life River Experimental Animal Technology Co., Ltd. (Beijing, China) and housed at the Experimental Animal Center of Nanjing University of Traditional Chinese Medicine. Animals were maintained at 22±2° C. on a regular 12h/12h light-dark cycle with free access to food and water. All animal experiments were approved by the Ethics Committee of Nanjing University of Traditional Chinese Medicine. Animal care was provided according to IACUC-approved guidelines.
Twenty-four hours after the last administration, the mice were anesthetized with pentobarbital sodium, from which blood samples were collected, and then the mice were euthanized. […].
Isolation of exosomes from mouse plasma: To obtain plasma for exosome isolation, blood was centrifuged at 500 g for 5 min at 4° C.; 2000 g for 15 min; and treated with a solution of 10000 g for 20 min to remove cells, debris and large vesicles. The crude exosome pellet was resuspended in 60 ml of cold PBS (Invitrogen), and then the exosome suspension was centrifuged at 100,000 g for 70 min at 4° C. For sucrose density gradient centrifugation, mix the washed exosome pellet with 2 mL of […] sucrose solution and add to a sucrose step gradient column (10 2 ml sucrose gradients from […] using 20 mM HEPES as diluent). […]

The next test concerns PANC-1 cells. In words: Wound healing assay. Format: cell-based, human. The conditions noted are these: different concentrations of C52, 24 h, dose-dependent. Here is the method:
Wound healing assay: Cells were seeded in 6-well plates containing complete medium and cultured at 37° C. in a humidified air environment containing 5% CO2. […] Then, the cells were washed 3 times with PBS, and then incubated with serum-free RPMI-1640 medium containing different concentrations of […] for 24 h. The wound area and migrated cells within the wound area were photographed using a phase-contrast microscope. The wound area was measured using Image J software.

For another test, the system named is HEK293T cells. In words: Liposome-mediated pMAX-GFP transfection (endocytosis and endosomal trafficking). Format: cell-based.
Test [1] deals with A549, AGS, U87, SMMC-7721, HUH7. Nature of the test: Cancer cell growth in vitro. The format is cell-based, human. The conditions noted are these: any concentration, highest 10 μM.
Protocol: (§1) Cell culture: Human non-small cell lung cancer A549 cells, human pancreatic cancer PANC-1 cells, human glioma U87 cells, human liver cancer HUH7 cells and SMMC-7721 cells, and human gastric cancer AGS cells were purchased from ATCC or Stem Cell Bank of Chinese Academy of Sciences (Shanghai, China). Cells were cultured in RPMI1640 medium containing 10% fetal bovine serum (Sigma, USA), 100 U penicillin and 100 μg/ml streptomycin (Gibco, USA) at 37° C. in a humidified atmosphere containing 5% CO2.
The test system of test [2] is 84 selected human cancer-associated proteins in A549 cells. The conditions noted are these: 3 μM C52 or 5 μM C52 for 48 h.
Protocol: as §1
A total of 200 g of lysate protein was run on one Human XL Tumor Array (R&D Systems, Abingdon, UK). Followed the manufacturer's instructions exactly. The protein chip membrane was covered with plastic film and exposed to X-ray film for 8 minutes. Optical density on exposed X-ray film (hu.q, HQ-320XT, China) was quantified using a transmission mode scanner (EPSON, Beijing, China) and analyzed using Image J software.
Where [3] appears, read: C52 low and medium doses (10 or 30 mg/kg), oral once a day, vs vehicle.

“Also recorded” adds a separate entry of the source. Like-named read-outs stand apart in the source and are kept apart here.

`O=C(Nc1ccc(F)cc1)Nc1ccc(Nc2nc(/C=C/c3ccccc3)nc(N3CCOCC3)n2)cc1` [Compound C52]: in the test on EAE mice (setting [3]), the animal weight loss entry is recorded as “less weight loss; also recorded: reduced”, the clinical disease scores result was “lower; also recorded: improved” and the disease onset entry was “relatively delayed”. In the test with EAE mice (mouse, in vivo, po, 100 mg/kg), the “therapeutic effect in EAE” value was “no therapeutic effect”. Also, the “inhibition of exosome release” value in the test on Huh7-NC12 cells is recorded as “comparable to that of the known exosome inhibitor GW4869; also recorded: effectively inhibit the release of exosomes”. For the same compound, in the test with BALB/c mice, the “exosomal markers CD63 and TSG101 in plasma exosomes” value is “significantly decreased”. In addition, in the test with PANC-1 cells, the “closure rate of the gap size” value is “significantly decreased”. In addition, the “inhibition of GFP expression (maximum)” value with HEK293T cells (C52 added 4 h after transfection, at 0.316 μM) is given as “approximately 40%”. Besides, in the test on HEK293T cells (C52 after transfection, read-out: EC50 for inhibition of endosomal trafficking), the concentration for a half-maximal effect (EC50) is 0.082 µM. The EC50 with HEK293T cells (C52 before transfection, read-out: EC50 for inhibition of endocytosis) came to 0.098 µM. For the same compound, the concentration giving a half-maximal response (EC50) with HEK293T cells (C52 during entire transfection period, read-out: EC50 for inhibition of the whole process) is 0.045 µM. Further, in the test with HEK293T cells (C52 just before transfection only, at 0.316 μM), the “inhibition of GFP” value was “approximately 15%”. Moreover, the “inhibition of GFP (maximum)” value with HEK293T cells (C52 just before transfection only, at 10 μM) is on record as “approximately 40%”. Moreover, the “maximum inhibition rate of GFP expression” value in the test with HEK293T cells (C52 present throughout the transfection, at 0.316 μM) was “about 50%”. In test [1], the “effect on the growth of cancer cells” value is recorded as “no effect”. Besides, the “effect on protein levels of vimentin and other signaling molecules involved in cell proliferation” value in test [2] is listed as “little or no effect”.

(Values after patent US20250041311A1, “Compound For Treating or Preventing Vimentin-Mediated Diseases” (Aluda Pharmaceuticals, Inc., priority 2021, published 2025).)
